In patent publication US20040127472A1, “Use of anecortave acetate for the protection of visual acuity in patients with age related macular degeneration” (priority 2002, published 2004):

Assays:
[1] = system: patients with subfoveal choroidal neovascularization (CNV) secondary to AMD; experiment: Clinical trial, best-corrected logMAR visual acuity after a single posterior juxtascleral administration; format: in vivo; settings: for LogMAR Change 1 Line Improved, % of patients / LogMAR Change 1 Line Worsened, % of patients / LogMAR Change 2 Lines Worsened, % of patients / LogMAR Change No Change, % of patients / LogMAR Change ≧2 Lines Improved, % of patients / LogMAR Change ≧3 Lines Worsened (clinically significant vision loss), % of patients: Month 6 vs Baseline
From the text: (§1) This ongoing trial was initiated to compare the clinical efficacy of anecortave acetate versus placebo treatment for preservation (maintenance) of vision and inhibition of CNV lesion growth. Patients with a logMAR visual acuity of 0.3 (20/40 Snellen equivalent) to 1.2 (20/320 Snellen equivalent) and primary or recurrent subfoveal choroidal neovascularization (CNV) secondary to AMD with a lesion up to 30.48mm^2 (12 disc areas) in size were enrolled. At Baseline and follow-up visits, best-corrected logMAR visual acuity was obtained on all patients using guidelines previously established for the Early Treatment Diabetic Retinopathy Study. Patient lesion eligibility for this study was determined from standardized fluorescein angiograms at the Digital Angiography Reading Center (DARC) by certified Readers (trained retina specialists) prior to enrollment and treatment. The DARC also evaluated changes from Baseline in the fluorescein angiographic characteristics of the lesions in masked fashion. Each data point represents the average of at least two independent evaluations by DARC Readers. Because all angiographic data for this study is being collected using the same fimdus camera and digital camera systems and stored as uncompressed digital images, the actual lesion surface areas can be more closely approximated in mm^2 rather than requiring the disc area “best-fit” estimates previously used for film angiographic data.
The 128 patients in this double-masked, dose-response study were enrolled and treated between April 1999 and May 2001 by 18 participating sites in the US and EU. Prior to treatment, patients were enrolled and equally randomized to anecortave acetate sterile suspension for injection 30 mg (N=33), 15 mg (N=33), or 3 mg (N=32) or to placebo (vehicle, N=30). Masking of the clinical sites as to treatment group is being maintained in two ways. Study medication is masked by placing the treatment kits including study medication and supplies for the posterior juxtascleral administration in sealed opaque boxes identified by patient number only. The boxes were numbered sequentially at each clinical site and patients were assigned the next available sequential number upon enrollment. The randomization was built into the sequential numbering of the treatment kits and blocked within each site to maintain equal distribution across treatment assignments. Masking as to treatment group is also being maintained at each site by having an unmasked injecting investigator perform the treatments and a masked examining investigator perform the subsequent evaluations. Upon enrollment of each patient, anecortave acetate or placebo was administered behind the eye as a 0.5 mL posterior juxtascleral injection onto the outer surface of the sclera near the macula using a specially designed cannula. The cannula is described in commonly owned U.S. Pat. No. 6,413,245B1.
(§2) Clinical efficacy data is being obtained from evaluations of best-corrected logMAR visual acuity and standardized fluorescein angiograms. Clinical safety data obtained from general physical examinations, laboratory evaluations of blood and urine, and complete ophthalmic examinations, including indocyanine green angiography, continue to be periodically evaluated by the Independent Safety Committee overseeing this study. Clinical data from evaluations for safety and efficacy performed at Day 1-2, Week 2, Week 6, Month 3, and Month 6 following patient randomization and treatment are reported here.
The primary efficacy outcome for this ongoing study is the mean change from Baseline in best-corrected logMAR visual acuity. […]

[2] = Clinical trial, safety evaluation (ophthalmic and physical examinations, blood and urine); format: in vivo, patients
From the text: as §2
Following completion of the Month 6 visit by all patients, the accumulated safety data were evaluated by the Independent Safety Committee overseeing this study. […] The most common ocular changes reported were changes in lens opacity using the Lens Opacity Classification System (LOCS) II, and included reports of nuclear color, nuclear opalescence, cortical, and posterior subcapsular changes. Cataracts are a common intercurrent disorder in this patient population, and the changes seen were documented in all treatment groups and in contralateral (untreated) eyes. The cataractous changes reported were described as mild and typically unrelated to treatment. The second most common ocular change, a decrease in vision (defined as a decrease of ≧4 logMAR lines from the previous visit), is also a common problem in this patient population. These vision decreases occurred in all treatment groups and in the contralateral eye. Other ocular changes (occurring with a frequency greater than 5%) were ptosis, ocular pain, subconjunctival hemorrhage, ocular pruritis, ocular burning/stinging, pupil disorders, foreign body sensation, ocular hyperemia, and abnormal vision. These changes were reported in all four treatment groups, in both treated eyes and contralateral eyes, were characterized as primarily mild, were generally not attributed to treatment, and were transient in nature. The single report of an IOP increase (≧10 mmHg) from Baseline occurred in a patient treated with anecortave acetate 30 mg and was attributed to intercurrent illness. Of the ocular changes reported, those most frequently attributed to study treatment were ptosis, ocular pain, subconjunctival hemorrhage, ocular pruritis, and ocular burning/stinging. These treatment-related events were mostly mild, transient, and seen within all four treatment groups.
The most common non-ocular changes from Baseline reported for this study were hypertension, peripheral edema, depression, and arthritis, none of which were attributed to treatment.

[3] = target: matrix metalloproteinase-3 (Homo sapiens, UniProt P08254); settings: cited from earlier work
Chain of matrix metalloproteinase-3 (P08254 100-477, species assumed): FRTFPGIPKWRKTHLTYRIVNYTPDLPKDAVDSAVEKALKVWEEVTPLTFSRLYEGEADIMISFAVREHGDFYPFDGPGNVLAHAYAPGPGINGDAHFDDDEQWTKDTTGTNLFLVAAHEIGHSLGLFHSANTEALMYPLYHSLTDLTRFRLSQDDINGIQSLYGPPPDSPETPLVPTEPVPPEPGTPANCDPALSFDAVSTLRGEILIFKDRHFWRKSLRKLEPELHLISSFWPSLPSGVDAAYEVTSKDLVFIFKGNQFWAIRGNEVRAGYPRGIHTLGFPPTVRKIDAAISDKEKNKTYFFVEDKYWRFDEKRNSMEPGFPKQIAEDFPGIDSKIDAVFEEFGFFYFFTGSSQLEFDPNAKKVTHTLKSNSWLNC

[4] = system: plasminogen activator inhibitor 1; settings: cited from earlier work
glucocorticoid receptor = target: T1, glucocorticoid receptor (Homo sapiens, UniProt P04150); settings: preclinical data (refs 8,9); cited from earlier work
T1 sequence (P04150 1-777): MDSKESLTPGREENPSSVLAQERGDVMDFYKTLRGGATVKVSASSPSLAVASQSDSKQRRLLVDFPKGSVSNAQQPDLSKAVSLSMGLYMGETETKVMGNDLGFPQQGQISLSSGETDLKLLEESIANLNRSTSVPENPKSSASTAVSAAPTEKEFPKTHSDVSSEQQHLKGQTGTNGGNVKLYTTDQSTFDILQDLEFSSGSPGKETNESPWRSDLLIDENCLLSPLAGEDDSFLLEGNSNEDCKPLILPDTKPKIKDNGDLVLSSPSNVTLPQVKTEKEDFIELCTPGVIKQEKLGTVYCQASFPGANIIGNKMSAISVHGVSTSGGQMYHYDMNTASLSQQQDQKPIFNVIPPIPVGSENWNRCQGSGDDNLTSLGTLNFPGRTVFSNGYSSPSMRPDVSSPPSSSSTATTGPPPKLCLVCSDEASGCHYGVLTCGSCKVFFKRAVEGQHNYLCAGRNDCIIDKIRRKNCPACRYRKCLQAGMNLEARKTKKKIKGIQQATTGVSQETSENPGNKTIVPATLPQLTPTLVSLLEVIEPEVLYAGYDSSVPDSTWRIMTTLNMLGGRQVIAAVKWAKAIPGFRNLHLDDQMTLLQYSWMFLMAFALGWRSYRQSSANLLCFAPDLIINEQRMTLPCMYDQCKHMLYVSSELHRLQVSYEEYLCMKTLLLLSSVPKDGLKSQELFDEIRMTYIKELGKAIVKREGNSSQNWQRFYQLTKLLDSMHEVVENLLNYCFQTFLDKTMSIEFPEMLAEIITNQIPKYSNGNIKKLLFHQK

[5] = target: urokinase-like plasminogen activator (Homo sapiens, UniProt P00749); settings: cited from earlier work
[6] = Preclinical drug levels after slow-release depot adjacent to the posterior scleral surface; format: in vivo; settings: data not shown
[7] = system: subfoveal CNV lesion secondary to AMD; experiment: Clinical trial, CNV lesion surface areas from standardized fluorescein angiograms (DARC); format: in vivo, patients; settings: for inhibition of lesion growth versus placebo: Month 6
From the text: as §1, §2
The primary efficacy outcome for this ongoing study is the mean change from Baseline in best-corrected logMAR visual acuity. Secondary efficacy outcomes are: the percentage of patients with preservation or maintenance of vision (defined as loss of less than three logMAR lines [less than 15 logMAR letters] of visual acuity); the percentage of patients with clinically significant worsening of vision (defined as a loss of at least three logMAR lines [at least 15 logMAR letters] of visual acuity); the percentage of patients with severe vision loss (defined as a loss of at least six logMAR lines [at least 30 logMAR letters] of visual acuity); and changes in CNV lesion characteristics (defined as total lesion area, total CNV and total classic CNV).
All efficacy analyses were based on the intent-to-treat principle. All patients received the medication to which they were assigned, and were analyzed accordingly. Last-observation-carry-forward was used to impute missing values. Baseline comparisons were tested using analysis of variance (for continuous outcomes) and Pearson's chi square (for binary outcomes). Changes from baseline in visual acuity and lesion parameters were tested in a repeated measures analysis of variance model with appropriate contrasts for the 6-month comparisons. Comparisons of binary outcomes at Month 6 were evaluated using Pearson's chi-square tests. All analyses of ocular outcomes are based on changes in the study (i.e., treated) eye.

[8] = 3 mg single administration, n = 32
[9] = 15 mg single administration, n = 33
[10] = 15 mg single administration, n = 33, listed as Anec Acet
[11] = 30 mg single administration, n = 33

With `CC(=O)OCC(=O)[C@@]1(O)CC[C@H]2[C@@H]3CCC4=CC(=O)CC[C@]4(C)C3=CC[C@@]21C` [anecortave acetate, 4,9(11)-pregnadien-17α,21-diol-3,20 dione-21 acetate] the “LogMAR Change 1 Line Improved, % of patients” value [1, 8] was 0%, the “LogMAR Change 1 Line Worsened, % of patients” value [1, 8] was 12.5% and the “LogMAR Change 2 Lines Worsened, % of patients” value [1, 8] was 18.8%. For the same compound, the “LogMAR Change No Change, % of patients” value [1, 8] was 37.5%, the “LogMAR Change ≧2 Lines Improved, % of patients” value [1, 8] was 6% and the “LogMAR Change ≧3 Lines Worsened (clinically significant vision loss), % of patients” value [1, 8] was 25.0%. The “LogMAR Change ≧2 Lines Improved, % of patients” value ([1]; 3 mg single administration, n = 32, listed as Anec Acet) was 6.3%, the “<6 Lines Worse, % of patients” value ([1]; 3 mg, Month 6) was 78.13% and the “Severe Vision Loss, ≧6 Lines Worse, % of patients” value (from here on “Severe Vision Loss … % of patients”) ([1]; 3 mg, Month 6) was 21.88%. The “mean change at Month 6 from Baseline in logMAR visual acuity, versus placebo” value ([1]; 3 mg, statistical significance not achieved) was “Trends also favor treatment”, the “average final logMAR value” ([1]; 15 mg single administration, Month 6 (20/125 Snellen equivalent; Baseline 0.73)) was 0.81 logMAR and the “LogMAR Change 1 Line Improved, % of patients” value [1, 9] was 3.0%. The “LogMAR Change 1 Line Worsened, % of patients” value [1, 9] was 12.1%, the “LogMAR Change 2 Lines Worsened, % of patients” value [1, 9] was 30.3% and the “LogMAR Change No Change, % of patients” value [1, 9] was 24.2%. The “LogMAR Change ≧2 Lines Improved, % of patients” value [1, 9] was 18%, the “LogMAR Change ≧3 Lines Worsened (clinically significant vision loss), % of patients” value [1, 9] was 12% and the “LogMAR Change ≧2 Lines Improved, % of patients” value [1, 10] was 18.2%. For the same compound, the “LogMAR Change ≧3 Lines Worsened (clinically significant vision loss), % of patients” value [1, 10] was 12.1%, the “mean change from Baseline logMAR visual acuity” value ([1]; 15 mg single treatment, Month 6) was “+0.08 logMAR score” and the “<6 Lines Worse, % of patients” value ([1]; 15 mg, Month 6) was 96.97%. The “Severe Vision Loss … % of patients” value ([1]; 15 mg, Month 6) was 3.03%, the “percentage of patients with preservation of vision (decrease of less than three logMAR lines from Baseline)” value ([1]; 15 mg, Month 6, overall analysis) was 88% and the “percentage of patients with preservation of vision (decrease of less than three logMAR lines from Baseline)” value ([1]; 15 mg, Month 6, subgroup with predominantly classic CNV lesion) was 92%. The “mean change at Month 6 from Baseline in logMAR visual acuity, versus placebo” value ([1]; 15 mg, p=0.0032) was “statistically superior to placebo treatment”, the “LogMAR Change 1 Line Improved, % of patients” value [1, 11] was 12.1% and the “LogMAR Change 1 Line Worsened, % of patients” value [1, 11] was 15.2%. The “LogMAR Change 2 Lines Worsened, % of patients” value [1, 11] was 15.2%, the “LogMAR Change No Change, % of patients” value [1, 11] was 30.3% and the “LogMAR Change ≧2 Lines Improved, % of patients” value [1, 11] was 3%. For the same compound, the “LogMAR Change ≧3 Lines Worsened (clinically significant vision loss), % of patients” value [1, 11] was 24.2%, the “LogMAR Change ≧2 Lines Improved, % of patients” value ([1]; 30 mg single administration, n = 33, listed as Anec Acet) was 3.0% and the “<6 Lines Worse, % of patients” value ([1]; 30 mg, Month 6) was 75.76%. For the same compound, the “Severe Vision Loss … % of patients” value ([1]; 30 mg, Month 6) was 24.24%, the “mean change at Month 6 from Baseline in logMAR visual acuity, versus placebo” value ([1]; 30 mg, statistical significance not achieved) was “Trends also favor treatment” and the “reports of IOP increase (≧10 mmHg) from Baseline” value ([2]; 30 mg, attributed to intercurrent illness) was “single report”. For the same compound, the “changes in blood chemistry, hematology, or urinalysis” value ([2]; all doses, 6 months) was “No treatment-related changes”, the “safety evaluation by the Independent Safety Committee” value ([2]; all doses, after Month 6 visit) was “no clinically relevant medication-related or administration-related safety concerns were identified” and the “ocular corticosteroid side effects (elevated intraocular pressure or accelerated cataract progression)” value ([2]; clinical study, at least 6 months exposure) was “no clinical evidence of ocular corticosteroid side effects”. For the same compound, the “effect on matrix metalloproteinase-3” value [3] was “inhibits”, the “effect on plasminogen activator inhibitor 1” value [4] was “upregulates” and the corticosteroid activity (glucocorticoid receptor) was “no measurable corticosteroid activity”. The “effect on urokinase-like plasminogen activator” value [5] was “inhibits”, the “duration of therapeutic drug levels in the adjacent choroid and retina” value [6] was “up to 6 months” and the “inhibition of lesion growth versus placebo” value ([7]; 3 mg) was “trend favoring”. For the same compound, the “inhibition of total CNV surface area growth, percent change from Baseline, versus placebo” value ([7]; 15 mg, Month 6, p=0.0001) was “statistically superior to placebo treatment”, the “inhibition of total lesion surface area growth, percent change from Baseline, versus placebo” value ([7]; 15 mg, Month 6, p=0.0005) was “statistically superior to placebo treatment” and the “inhibition of total classic CNV surface area growth, percent change from Baseline, versus placebo” value ([7]; 15 mg, Month 6, p=0.0008) was “statistically superior to placebo treatment”. The “inhibition of lesion growth versus placebo” value ([7]; 30 mg) was “trend favoring”.
